Like-named read-outs stand apart in the source and are kept apart here.
Key:
[1] = tested on: Clostridium sporogenes ATCC 19404; assay: Minimal inhibitory concentration against anaerobic bacteria; type: cell-based; conditions: ATCC19404, 24 h
candida albicans = assay: Oral treatment: recovery of viable candida albicans from the kidneys of infected mice; type: in vivo
Text: Effect of oral treatment with HC274, HC316, HC390, HC415 and Ketoconazole on the recovery of viable candida albicans from the kidneys of infected mice.

[2] = tested on: Desulfovibrio desulfuricans API-CORE; assay: Minimal inhibitory concentration against anaerobic bacteria; conditions: 24 h
C. albicans = assay: Vaginal candida infection in rats, oral or topical treatment; type: in vivo
Text: Effect of oral or topical administration of HC274 and ketoconazole on vaginal candida infection in rats. Clearance of C. albicans from rat vagina following oral or topical treatment (as percentage of control).
Topical treatment: 1% solution in polyethylene glycol administrated twice daily for 3 days.
Oral treatment: Once daily for 3 days.

T. vaginalis ATCC 30001 = assay: Antianaerobic activity, MIC by standard broth dilution method (Table II); type: cell-based; conditions: Trichomonas vaginalis, ATCC30001, 24 h, read-out: Minimal Inhibitory Concentration (MIC)
How it was run: (§1)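 MIC determined by standard broth dilution against single strains of the anaerobes and T. vaginalis.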

B. uniformis ATCC 8492 = assay: as above; type: cell-based; conditions: Bacteroides uniformis, ATCC8492, 24 h, read-out: Minimal Inhibitory Concentration (MIC)
How it was run: as §1

B. fragilis ATCC 23745 = assay: as above; type: cell-based; conditions: Bacteroides fragilis, ATCC23745, 24 h, read-out: Minimal Inhibitory Concentration (MIC)
How it was run: as §1

C. sporogenes ATCC 19404 = assay: as above; type: cell-based; conditions: Clostridium sporogenes, ATCC19404, 24 h, read-out: Minimal Inhibitory Concentration (MIC)
How it was run: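 Minimum inhibitory concentration determined by standard broth dilution against a single Clostridium sporogenes strain under anaerobic test conditions.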

[3] = tested on: Trichophyton mentagrophytes; assay: Experimental Trichophyton mentagrophytes infection in guinea pigs; type: in vivo
Text: Effect of oral or topical administration of HC274, HC344, Clotrimazole, and Ketoconazole on experimental Trichophyton mentagrophytes infection in guinea pigs.
*Based on degree of hair loss, erythema, desquamation, Max. = 100
Treatments administered in Carbopol® gel, once daily days 5-10.

Streptococcus pyrogenes = assay: Anti-bacterial activity, zone diameter; type: cell-based; conditions: 50 μg; Streptococcus pyrogenes; read-out: Zone diameter given by 50 μg of drug
Text: (§2) The anti-bacterial activity of the compound HC274 according to the present invention was also compared with the activity of known anti-bacterial agents with the following results: […]

Proteus vulgaris = assay: Anti-bacterial activity, zone diameter; type: cell-based; conditions: 50 μg, read-out: Zone diameter given by 50 μg of drug
Text: as §2

Nocardia asteroides = assay: Anti-bacterial activity, zone diameter; type: cell-based; conditions: 50 μg, read-out: Zone diameter given by 50 μg of drug
Text: as §2

pseudomonas aeruginosa = assay: Anti-bacterial activity, zone diameter; type: cell-based; conditions: 50 μg; pseudomonas aeruginosa; read-out: Zone diameter given by 50 μg of drug
Text: as §2

Escherichia coli = assay: Anti-bacterial activity, zone diameter; type: cell-based; conditions: 50 μg, read-out: Zone diameter given by 50 μg of drug
Text: as §2

Nocardia brasiliensis = assay: Anti-bacterial activity, zone diameter; type: cell-based; conditions: 50 μg, read-out: Zone diameter given by 50 μg of drug
Text: as §2

Staphylococcus aureus = assay: Anti-bacterial activity, zone diameter; type: cell-based; conditions: 50 μg, read-out: Zone diameter given by 50 μg of drug
Text: as §2

Klebsiella pneumoniac = assay: Anti-bacterial activity, zone diameter; type: cell-based; conditions: 50 μg; Klebsiella pneumoniac; read-out: Zone diameter given by 50 μg of drug
Text: as §2

In the case of `Cl.Clc1ccc(/C(Cn2ccnc2)=N\Nc2ccc(Cl)cc2Cl)cc1` [HC274, (E)-1-(4-chlorophenyl)-2-(1H-imidazol-1-yl)ethanone, 2,4-dichlorophenylhydrazone, hydrochloride], the MIC ([1]; Test 1, 24 hours at 37° C.) is reported as 2.5 µg/mL, the MIC ([1]; Test 2, 24 hours at 37° C.) is reported as 2.5 µg/mL and the MIC ([1]; Test 3, 24 hours at 37° C.) is reported as 7.5 µg/mL. The “Recovery of C.albicans (as percentage of control)” value (candida albicans; 5 mg/kg) was 84.2 percentage of control, the “Recovery of C.albicans (as percentage of control)” value (candida albicans; 20 mg/kg) was 47.8 percentage of control and the MIC ([2]; read-out: Minimal Inhibitory Concentration, Test 1, 24 hours at 37° C.) was 0.75 µg/mL. The MIC ([2]; read-out: Minimal Inhibitory Concentration, Test 2, 24 hours at 37° C.) was 1 µg/mL, the MIC ([2]; read-out: Minimal Inhibitory Concentration, Test 3, 24 hours at 37° C.) was 1 µg/mL and the “Clearance of C. albicans from rat vagina (as percentage of control)” value (“Clearance … (as percentage of control)” for short) (C. albicans; oral, 10 mg/kg once daily for 3 days) was 94.3 percentage of control. The “Clearance … (as percentage of control)” value (C. albicans; oral, 20 mg/kg once daily for 3 days) was 91.3 percentage of control, the “Clearance … (as percentage of control)” value (C. albicans; topical, 1% solution in polyethylene glycol twice daily for 3 days) was 95.5 percentage of control and the MIC (T. vaginalis ATCC 30001; Test 1) was 5 µg/mL. The MIC (T. vaginalis ATCC 30001; Test 2) was 7.5 µg/mL, the MIC (T. vaginalis ATCC 30001; Test 3) was > 10 µg/mL and the MIC (B. uniformis ATCC 8492; Test 1) was 2.5 µg/mL. For the same compound, the MIC (B. uniformis ATCC 8492; Test 2) was 2.5 µg/mL, the MIC (B. uniformis ATCC 8492; Test 3) was 5 µg/mL and the MIC (B. fragilis ATCC 23745; Test 1) was 2.5 µg/mL. The MIC (B. fragilis ATCC 23745; Test 2) was 5 µg/mL, the MIC (B. fragilis ATCC 23745; Test 3) was 7.5 µg/mL and the MIC (C. sporogenes ATCC 19404; Test 1) was 2.5 µg/mL. The MIC (C. sporogenes ATCC 19404; Test 2) was 2.5 µg/mL, the MIC (C. sporogenes ATCC 19404; Test 3) was 7.5 µg/mL and the “Disease rating (degree of hair loss, erythema, desquamation, Max. = 100)” value ([3]; 40 mg/kg p.o., day 5 after infection) was 100. The “Disease rating (degree of hair loss, erythema, desquamation, Max. = 100)” value ([3]; 40 mg/kg p.o., day 10 after infection) was 46.9, the “Disease rating (degree of hair loss, erythema, desquamation, Max. = 100)” value ([3]; topical, 1% w/w in Carbopol gel once daily days 5-10, day 10 after infection) was 35.4 and the “Disease rating (degree of hair loss, erythema, desquamation, Max. = 100)” value ([3]; topical, 1% w/w in Carbopol gel, day 5 after infection) was 100. It also gave a zone of inhibition at 50 µg/disc (Streptococcus pyrogenes) of 9 mm, a zone of inhibition at 50 µg/disc (Proteus vulgaris) of 0 mm and a zone of inhibition at 50 µg/disc (Nocardia asteroides) of 11 mm. It also gave a zone of inhibition at 50 µg/disc (pseudomonas aeruginosa) of 0 mm, a zone of inhibition at 50 µg/disc (Escherichia coli) of 0 mm and a zone of inhibition at 50 µg/disc (Nocardia brasiliensis) of 12 mm. It also gave a zone of inhibition at 50 µg/disc (Staphylococcus aureus) of 8 mm and a zone of inhibition at 50 µg/disc (Klebsiella pneumoniac) of 0 mm.

— US4351948A, “Imidazole hydrazone derivatives” (priority 1980, dated 1982)
